Patent publication US20250206723A1, “METHODS AND PROCESSES FOR THE PREPARATION OF MCT4 INHIBITORS” (Vettore, LLC, priority 2022, published 2025)
Structures can show the parent of a compound that is named as a salt.

Tests used:
[1] = Rat pharmacokinetics, oral gavage, plasma by LC-MS/MS; assay type: in vivo, Sprague-Dawley rats
[2] = Dog pharmacokinetics, oral powder in capsule; assay type: in vivo, beagle dogs; conditions: for AUCinf / AUClast: single 3 mg/kg, powder in capsule, mean, 3 mg/kg, in ng·h/mL
Experimental: Groups, Dosing, and Collection. The pharmacokinetics of the free acid and the tris salt of the compound of Formula I administered by oral capsules was assessed in dogs. Three male beagle dogs were administered a single dose of 3 mg/kg free acid on Day 1 of the study, and a single dose of 3 mg/kg tris salt on Day 8 of the study. Plasma was collected pre-dose, and at 0.5, 1, 2, 4, 8, 12 and 24 hours post-dose via puncture of peripheral veins.
(§1) LC MS-MS Analysis. Liquid Chromatography with tandem mass spectrometry was used to determine plasma concentrations of the compound of Formula I free acid and the tris salt in plasma samples collected at prescribed time points. Instrumentation included YMC-Triart C18, S-5 μm (50×2.1 mm) HPLC column, liquid chromatograph Shimadzu LC-30AD with communications bus module CBM-20A and Auto SIL-20AC HT; and a Triple Quad 5500 LC/MS/MS instrument. Tolbutamide was used as an internal standard.

[3] = Dog pharmacokinetics, oral gavage of suspension (0.5% methylcellulose in saline); assay type: in vivo; conditions: male beagle dogs; for AUC(0-inf) / AUC(0-t): dog, plasma, oral gavage suspension, mean
Experimental: In a follow-up study, the pharmacokinetics of tris salt of the compound of Formula I were investigated via oral gavage of a 0.5% methylcellulose in saline formulation. Two groups of animals were tested. In Group 1, three male beagle dogs were administered a single dose of 3 mg/kg tris salt. In Group 2, three male beagle dogs were administered a single dose of 30 mg/kg tris salt. Plasma was collected pre-dose, and at 0.5, 1, 2, 4, 8, 12 and 24 hours post-dose via puncture of peripheral veins.
as §1

MCT4 = MCT4 (Homo sapiens, UniProt O15427); conditions: affinity of MCT4 for lactate; cited from earlier work
Sequence of MCT4 (O15427 whole entry): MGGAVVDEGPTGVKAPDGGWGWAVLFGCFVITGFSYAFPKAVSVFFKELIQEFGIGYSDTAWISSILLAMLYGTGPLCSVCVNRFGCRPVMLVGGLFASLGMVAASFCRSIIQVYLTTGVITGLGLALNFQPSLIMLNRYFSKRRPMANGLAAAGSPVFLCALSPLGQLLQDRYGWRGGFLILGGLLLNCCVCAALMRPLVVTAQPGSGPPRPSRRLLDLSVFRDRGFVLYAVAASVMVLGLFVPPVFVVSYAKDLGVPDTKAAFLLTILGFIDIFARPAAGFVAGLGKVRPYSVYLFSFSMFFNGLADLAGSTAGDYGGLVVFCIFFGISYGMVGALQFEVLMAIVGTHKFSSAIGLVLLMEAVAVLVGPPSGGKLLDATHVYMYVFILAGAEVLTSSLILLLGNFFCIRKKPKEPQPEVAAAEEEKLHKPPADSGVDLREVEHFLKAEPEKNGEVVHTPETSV

[4] = rat male, 20 mg/kg free acid, oral gavage, mean
[5] = male beagle dogs, listed as Salt

CC(C)(OCc1cc(-c2cccc(OC3CCC3)c2)n(-c2ccccc2N2CCC2)n1)C(=O)O [Free Acid, 2-([1-[2-(azetidin-1-yl)phenyl]-5-(3-cyclobutoxyphenyl)-1H-pyrazol-3-yl]methoxy)-2-methylpropanoic acid]
AUC—% Extrap_obs ([1]; rat female, 20 mg/kg free acid, oral gavage, mean): 9.9%
AUC—% Extrap_obs ([1]; rat female, 60 mg/kg free acid, oral gavage, mean): 16.7%
AUC—% Extrap_obs ([1]; rat female, 200 mg/kg free acid, oral gavage, mean): 22.1%
AUClast/D [1, 4]: 8332 ng·h/mL
AUC—% Extrap_obs [1, 4]: 0.61%
AUC—% Extrap_obs ([1]; rat male, 60 mg/kg free acid, oral gavage, mean): 0.477%
AUC—% Extrap_obs ([1]; rat male, 200 mg/kg free acid, oral gavage, mean): 0.704%
clinical symptoms ([1]; rats, single oral gavage, all dose groups): No abnormal clinical symptoms
clinical symptoms ([2]; male beagle dogs, single 3 mg/kg oral capsule): No abnormal clinical symptoms
AUCinf ([2]; male beagle dogs): 1265
AUClast ([2]; male beagle dogs): 1215

CC(C)(OCc1cc(-c2cccc(OC3CCC3)c2)n(-c2ccccc2N2CCC2)n1)C(=O)O [Tris Salt]
AUC(0-inf) ([3]; 3 mg/kg): 5200 ng·h/mL
AUC(0-t) ([3]; 3 mg/kg): 5080 ng·h/mL
AUC(0-inf) ([3]; 30 mg/kg): 56800 ng·h/mL
AUC(0-t) ([3]; 30 mg/kg): 41300 ng·h/mL
clinical symptoms ([3]; single 3 or 30 mg/kg oral gavage): No abnormal clinical symptoms
AUC—% Extrap_obs ([1]; rat female, 25 mg/kg tris salt, oral gavage, mean): 9%
AUC—% Extrap_obs ([1]; rat female, 75 mg/kg tris salt, oral gavage, mean): 18.5%
AUC—% Extrap_obs ([1]; rat female, 250 mg/kg tris salt, oral gavage, mean): 59.9%
AUC—% Extrap_obs ([1]; rat male, 25 mg/kg tris salt, oral gavage, mean): 1.28%
AUC—% Extrap_obs ([1]; rat male, 75 mg/kg tris salt, oral gavage, mean): 0.473%
AUC—% Extrap_obs ([1]; rat male, 250 mg/kg tris salt, oral gavage, mean): 26.5%
total drug exposure across time (AUClast and AUCInf) versus free acid groups ([1]; rats, male and female): higher
Maximum exposure levels (Cmax) versus free acid groups ([1]; rats, male and female, except females at 20/25 mg/kg): higher
total drug exposure across time (AUClast and AUCInf) compared to the free acid ([2]; dogs, powder in capsule and suspension formulations): higher
AUCinf [2, 5]: 4092
AUClast [2, 5]: 3924

CC(O)C(=O)O (stereo not shown) [lactate]
Km (MCT4): 28 mM
